In US11028051B2, “Tetrahydroquinoline-based bromodomain inhibitors” (St. Jude Children's Research Hospital, priority 2016, dated 2021):

Assays:
Assay in all cases: competitive TR-FRET assay, BET-BD with acetylated peptide ligand
Assay type in all cases: binding
BRD4-BD1 = BRD4-BD1 (Homo sapiens (Human), UniProt O60885); settings: BRD4-BD1; Table 11 additional modifications; read-out: 4.1 EC50
Experimental: (§1) Inhibitor potency was determined using a competitive TR-FRET assay as detailed herein, measuring interaction of the respective BET-BD with an acetylated peptide ligand (Table 2).

BRD3-BD1 = BRD3-BD1 (Homo sapiens (Human), UniProt Q15059); settings: BRD3-BD1; Table 11 additional modifications; read-out: 3.1 EC50
Experimental: as §1

BRD4-BD2 = BRD4-BD2 (Homo sapiens (Human), UniProt O60885); settings: BRD4-BD2; Table 11 additional modifications; read-out: 4.2 EC50
Experimental: as §1

BRD2-BD2 = BRD2-BD2 (Homo sapiens (Human), UniProt P25440); settings: for EC50: BRD2-BD2, Table 11 additional modifications, read-out: 2.2 EC50; for 2.1/2.2: ratio of BRD2-BD1 EC50 to BRD2-BD2 EC50 (selectivity)
Experimental: as §1

BRD2-BD1 = BRD2-BD1 (Homo sapiens (Human), UniProt P25440); settings: BRD2-BD1; Table 11 additional modifications; read-out: 2.1 EC50
Experimental: as §1

BRDT = BRDT (Homo sapiens, UniProt Q58F21); settings: BRDT; Table 11 additional modifications; read-out: BRDT EC50
Experimental: as §1

Chain of BRD2-BD1 (P25440 74-180): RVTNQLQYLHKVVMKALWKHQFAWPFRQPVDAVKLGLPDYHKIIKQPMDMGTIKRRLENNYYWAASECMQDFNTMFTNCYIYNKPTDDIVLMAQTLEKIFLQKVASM
Chain of BRD2-BD2 (P25440 344-453): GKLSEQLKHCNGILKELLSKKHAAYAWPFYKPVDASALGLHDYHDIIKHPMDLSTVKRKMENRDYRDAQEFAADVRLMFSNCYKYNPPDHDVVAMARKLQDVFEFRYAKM
Chain of BRD3-BD1 (Q15059 34-140): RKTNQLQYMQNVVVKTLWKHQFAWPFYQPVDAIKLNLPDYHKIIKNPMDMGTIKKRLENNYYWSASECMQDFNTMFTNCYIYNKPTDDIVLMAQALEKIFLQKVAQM

SMILES | EC50 (BRD4-BD1) | EC50 (BRD3-BD1) | EC50 (BRD4-BD2) | EC50 (BRD2-BD2) | 2.1/2.2 (BRD2-BD2) | EC50 (BRD2-BD1) | EC50 (BRDT)
CC(=O)N1c2ccc(C3=CCCO3)cc2[C@H](NC(=O)OC(C)C)C[C@@H]1C [compound 85] | 8.5 µM | 4.8 µM | 12 µM | 1.2 µM | 3.6 | 13 µM | –
CC(=O)Nc1cccc(-c2ccc3c(c2)[C@H](Nc2ccc(C(=O)O)cc2)C[C@H](C)N3C(C)=O)c1 [compound 120] | 13 µM | 4.9 µM | 0.17 µM | 0.13 µM | 3.1 | 33 µM | –
CC(=O)N1c2ccc(-c3ccc4c(c3)OCCO4)cc2[C@H](NC(=O)OC(C)C)C[C@@H]1C [compound 77] | 15 µM | 10 µM | 14 µM | 9.7 µM | 1.6 | 16 µM | –
COc1ccccc1-c1ccc2c(c1)[C@H](NC(=O)OC(C)C)C[C@H](C)N2C(C)=O [compound 60] | > 50 µM | 11 µM | 14 µM | 2.9 µM | 5.3 | 15 µM | –
CC(=O)N1c2ccc(-c3ccc(Oc4ccccc4)cc3)cc2[C@H](NC(=O)OC(C)C)C[C@@H]1C [compound 61] | 11 µM | 8.8 µM | 14 µM | 2.1 µM | 6.2 | 13 µM | –
CC(=O)Nc1cccc(-c2ccc3c(c2)[C@H](NC(=O)C(C)C)C[C@H](C)N3C(C)=O)c1 [compound 71] | – | – | 11 µM | – | 4.9 | – | –
CCCCOc1cccc(-c2ccc3c(c2)[C@H](Nc2ccc(C(=O)OC)cc2)C[C@H](C)N3C(C)=O)c1 [compound 164] | 57 µM | 30 µM | – | 0.22 µM | 100 | 22 µM | 32 µM
CC(=O)Nc1cccc(-c2ccc3c(c2)[C@H](NC(=O)C(C)C)C[C@H](C)N3C(C)=O)c1 [compound 65] | – | – | 7.8 µM | – | 1.4 | – | –
CCCOc1cccc(-c2ccc3c(c2)[C@H](Nc2ccccc2OC(F)(F)F)C[C@H](C)N3C(C)=O)c1 [compound 167] | > 70 µM | > 70 µM | – | 2.1 µM | 16 | > 70 µM | > 70 µM
CC(=O)Nc1cccc(-c2ccc3c(c2)[C@H](Nc2ccc(C(=O)CO)cc2)C[C@H](C)N3C(C)=O)c1 [compound 30] | > 70 µM | 9.8 µM | – | 0.02 µM | 145 | 2.9 µM | 4.8 µM
CC(=O)Nc1cccc(-c2ccc3c(c2)[C@H](Nc2ccc(C(=O)N(C)C)cc2)C[C@H](C)N3C(C)=O)c1 [compound 174] | > 15 µM | 1.1 µM | – | 0.04 µM | 58 | 0.9 µM | 1.2 µM
CC(=O)N1c2ccc(-c3cccc(NCCCc4ccccc4)c3)cc2[C@H](NC(=O)OC(C)C)C[C@@H]1C [compound 109] | > 11 µM | 0.67 µM | – | 0.28 µM | 5.6 | 11 µM | 11 µM
CCCOc1cccc(-c2ccc3c(c2)[C@H](Nc2ccc(F)cc2OC)C[C@H](C)N3C(C)=O)c1 [compound 168] | > 57 µM | 45 µM | – | 1.2 µM | 99 | 35 µM | 39 µM
COc1cc(F)ccc1N[C@@H]1C[C@H](C)N(C(C)=O)c2ccc(-c3cc[nH]n3)cc21 [compound 170] | > 26 µM | 14 µM | – | 0.14 µM | 6.5 | 3.1 µM | 4.9 µM
CC(=O)Nc1cccc(-c2ccc3c(c2)[C@H](Nc2ccc(-c4nnnn4C)cc2)C[C@H](C)N3C(C)=O)c1 [compound 28] | > 52 µM | > 52 µM | – | 0.01 µM | – | > 52 µM | > 52 µM
CC(=O)Nc1cccc(-c2ccc3c(c2)[C@H](Nc2ccc(C(=O)OC(C)(C)C)cc2)C[C@H](C)N3C(C)=O)c1 [compound 176] | 16 µM | 8.5 µM | – | 0.75 µM | 30 | 10 µM | 13 µM
COC(=O)c1ccc(N[C@@H]2C[C@H](C)N(C(C)=O)c3ccc(-c4cccc(NC(C)=O)c4)cc32)c(OC)c1 [compound 161] | > 30 µM | > 30 µM | – | 0.044 µM | 20 | 0.87 µM | 0.76 µM

Further compounds by falling EC50 (BRD4-BD1), results first:

EC50 (BRD4-BD1) | EC50 (BRD3-BD1) | EC50 (BRD4-BD2) | EC50 (BRD2-BD2) | 2.1/2.2 (BRD2-BD2) | EC50 (BRD2-BD1) | EC50 (BRDT) | SMILES
6.1 µM | 4 µM | 6.7 µM | 2.9 µM | 2.6 | 7.7 µM | – | CC(=O)N1c2ccc(-c3cccc(-n4cccn4)c3)cc2[C@H](NC(=O)OC(C)C)C[C@@H]1C [compound 78]
6 µM | 0.69 µM | – | 40 µM | 7.3 | 3.8 µM | 40 µM | CC(=O)N1c2ccc(-c3cccc(NCCC(C)C)c3)cc2[C@H](NC(=O)OC(C)C)C[C@@H]1C [compound 100]
3.8 µM | 1.5 µM | – | 0.17 µM | 8.2 | 1.4 µM | 2 µM | COc1cc(F)ccc1N[C@@H]1C[C@H](C)N(C(C)=O)c2ccc(-c3ccn(C)n3)cc21 [compound 173]
3.5 µM | 1.9 µM | 2.1 µM | 1.2 µM | 2.9 | 3.6 µM | – | COc1ccc(-c2ccc3c(c2)[C@H](NC(=O)OC(C)C)C[C@H](C)N3C(C)=O)cc1 [compound 59]
3.5 µM | 0.89 µM | – | 2.8 µM | 13 | 3.7 µM | 4.8 µM | CC(=O)N1c2ccc(-c3cccc(NCc4ccc(C)cc4)c3)cc2[C@H](NC(=O)OC(C)C)C[C@@H]1C [compound 103]
3.3 µM | 0.98 µM | – | 43 µM | 10 | 3.9 µM | 7 µM | CC(=O)N1c2ccc(-c3cccc(NCCC(C)(C)C)c3)cc2[C@H](NC(=O)OC(C)C)C[C@@H]1C [compound 106]
2.9 µM | 1.4 µM | 0.73 µM | 0.79 µM | 1.9 | 1.5 µM | – | CC(=O)N1c2ccc(-c3ccc(N(C)C)cc3)cc2[C@H](NC(=O)OC(C)C)C[C@@H]1C [compound 57]
2.3 µM | 0.28 µM | – | 0.38 µM | 7.0 | 1.2 µM | 1.2 µM | CC(=O)N1c2ccc(-c3cccc(NC(=O)CCc4ccccc4)c3)cc2[C@H](NC(=O)OC(C)C)C[C@@H]1C [compound 116]
2.1 µM | 0.31 µM | – | 0.035 µM | 6.3 | 0.22 µM | 0.66 µM | CC(=O)Nc1cccc(-c2ccc3c(c2)[C@H](Nc2ccc(-c4nnn(C)n4)cc2)C[C@H](C)N3C(C)=O)c1 [compound 27]
1.7 µM | 0.37 µM | – | 0.36 µM | 1.3 | 2.5 µM | 59 µM | CC(=O)N1c2ccc(-c3cccc(NCC4CC4)c3)cc2[C@H](NC(=O)OC(C)C)C[C@@H]1C [compound 108]
1.4 µM | 0.87 µM | 1.7 µM | 0.43 µM | 0.067 | 1.6 µM | – | CC(=O)N1c2ccc(-c3cccc(CCO)c3)cc2[C@H](NC(=O)OC(C)C)C[C@@H]1C [compound 89]
1.4 µM | 0.41 µM | – | 0.11 µM | 4.8 | 2.2 µM | 7.5 µM | CC(=O)N1c2ccc(-c3cccc(NC(=O)C(C)(C)C)c3)cc2[C@H](NC(=O)OC(C)C)C[C@@H]1C [compound 113]
1.2 µM | 0.26 µM | – | 0.008 µM | 58 | 0.46 µM | 0.3 µM | CC(=O)Nc1cccc(-c2ccc3c(c2)[C@H](Nc2ccc(C#N)cc2)C[C@H](C)N3C(C)=O)c1 [compound 29]
0.95 µM | 0.34 µM | – | 0.11 µM | 3.3 | 1.1 µM | 1.3 µM | CCCC(=O)Nc1cccc(-c2ccc3c(c2)[C@H](NC(=O)OC(C)C)C[C@H](C)N3C(C)=O)c1 [compound 101]
0.94 µM | 0.41 µM | – | 0.29 µM | 7.8 | 1.6 µM | 1.6 µM | CC(=O)N1c2ccc(-c3cccc(NC(=O)CC(C)C)c3)cc2[C@H](NC(=O)OC(C)C)C[C@@H]1C [compound 104]
0.9 µM | 0.24 µM | – | 0.12 µM | 15 | 1.5 µM | 1.2 µM | CC(=O)N1c2ccc(-c3cccc(NC(=O)C(C)C)c3)cc2[C@H](NC(=O)OC(C)C)C[C@@H]1C [compound 98]
0.2 µM | 0.1 µM | – | 0.03 µM | 0.095 | 0.4 µM | 1.1 µM | CC(=O)N1c2ccc(-c3cccc(NCC4CCOC4)c3)cc2[C@H](NC(=O)OC(C)C)C[C@@H]1C (stereo partly drawn) [compound 105]
